Here are results for 6 compounds from patent US8580517B2, “Biosensor and use thereof to identify therapeutic drug molecules and molecules binding orphan receptors” (priority 2003, dated 2013).

Entries after “also recorded” stand apart in the source; their conditions may differ.

Holding throughout (format): cell-based
For assay [1], the target named is T1, human serotonin receptors (Type 1A) (Homo sapiens, UniProt P08908).
T1 construct: expressed in transfected cells; host or cells: Biosensor cells
T1 sequence (P08908 1-422): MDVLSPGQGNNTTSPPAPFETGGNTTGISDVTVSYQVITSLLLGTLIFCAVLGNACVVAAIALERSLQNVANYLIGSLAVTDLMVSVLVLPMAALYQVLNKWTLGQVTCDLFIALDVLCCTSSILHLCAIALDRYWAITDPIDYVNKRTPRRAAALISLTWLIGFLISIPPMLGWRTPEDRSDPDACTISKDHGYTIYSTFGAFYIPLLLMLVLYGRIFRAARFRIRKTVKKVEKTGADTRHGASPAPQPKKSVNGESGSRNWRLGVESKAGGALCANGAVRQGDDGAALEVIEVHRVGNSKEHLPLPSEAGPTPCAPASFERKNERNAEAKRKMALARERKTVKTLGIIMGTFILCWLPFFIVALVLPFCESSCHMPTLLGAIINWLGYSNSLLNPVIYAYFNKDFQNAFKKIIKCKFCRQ
Briefly: G protein biosensor FRET profile in biosensor cells expressing serotonin receptors. How it is done: (§1) Microscopy, image acquisition and FRET analysis (i.e. image capture, recording and analysis) were carried out as follows (generally following the illustration in FIG. 3). Cells were seeded on glass coverslips (25 mm #1 from Warner Instruments) in 35 mm dishes and cultured overnight for imaging. Coverslips containing cells were mounted in a perfusion chamber of 0.36 ml internal volume (RC-21BR from Warner Instrument Corporation, 1141 Dixwell Ave., Hamden, Conn. 06514) containing Hank's Buffered Saline Solution (HBSS) supplemented with 10 mM Hepes pH 7.4 and 1 mg glucose/ml. The perfusion chamber was stage-mounted in an upright Zeiss Axioscope fluorescence microscope.
(§2) Agonists, antagonists or a molecule in the HBSS solution were injected manually (or using an automated valve based system driven pneumatically or by gravity) at a rate of about 2 ml/min for 45 seconds through a secondary inlet of the chamber. Images were acquired at the indicated times. Cells were illuminated with a 50 W mercury lamp (or a 100 W mercury lamp) through a 20% neutral density filter. The filter wheels were run by a Sutter Lambda 10-2 device, a high speed excitation filter wheel that utilizes a direct stepper motor. […]
(§3) Filters were used in combination with appropriate beam splitters in the filter cube. […] Average intensities in these regions were measured. […]

Assay [2] has as its target T2, M2 muscarinic acetylcholine receptors (Homo sapiens, UniProt P08172).
T2 construct: expressed in transfected cells
T2 sequence (P08172 1-466): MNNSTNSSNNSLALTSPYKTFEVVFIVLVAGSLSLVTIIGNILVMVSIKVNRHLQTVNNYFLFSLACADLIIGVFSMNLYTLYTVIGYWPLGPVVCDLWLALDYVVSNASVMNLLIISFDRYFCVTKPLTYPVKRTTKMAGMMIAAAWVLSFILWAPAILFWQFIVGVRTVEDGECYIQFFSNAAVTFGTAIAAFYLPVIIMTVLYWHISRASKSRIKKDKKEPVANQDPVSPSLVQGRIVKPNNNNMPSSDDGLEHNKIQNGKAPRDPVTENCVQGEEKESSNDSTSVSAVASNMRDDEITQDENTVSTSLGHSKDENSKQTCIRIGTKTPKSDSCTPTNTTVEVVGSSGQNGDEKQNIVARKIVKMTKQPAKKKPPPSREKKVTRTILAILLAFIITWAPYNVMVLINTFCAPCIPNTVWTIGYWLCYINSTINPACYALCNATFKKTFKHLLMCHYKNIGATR
Briefly: G protein biosensor FRET (CY/CC) imaging in CHO cells stably expressing M2 receptor. Conditions: biosensor with CFP tagged α, YFP tagged γ, untagged β subunit.

The target in assay [3] is T2, M2 muscarinic acetylcholine receptors. The description is as above. Particulars: for FRET signal intensity on addition of the molecule: 100 μM, α-CFP/β-YFPγ biosensor; for FRET signal intensity on repeated addition of agonist and antagonist: Go biosensor, same cell, repeated additions; for CC emission intensity / CY emission intensity: carbachol 100 μM, then atropine 100 μM. How it is done:
All were transferred to pDEST12.2 mammalian expression vectors following the manufacturer's instructions (Invitrogen). […] Competent CHO cells expressing M2 were competently transfected with three pDEST12.2 carrying αo-CFP, β1-YFP and γ5. Stable transfectants were selected with G418 and coexpressors were isolated by flow cytometry and confirmed by differential fluorescence microscopy.
as §1
Agonists, antagonists or a molecule in the HBSS solution were injected manually (or using an automated valve based system driven pneumatically or by gravity) at a rate of about 2 ml/min for 45 seconds through a secondary inlet of the chamber. Images were acquired at the indicated times. Cells were illuminated with a 50 W mercury lamp (or a 100 W mercury lamp) through a 20% neutral density filter. The filter wheels were run by a Sutter Lambda 10-2 device, a high speed excitation filter wheel that utilizes a direct stepper motor. (Sutter Instrument Company, 51 Digital Drive, Novato, Calif. 94949). In an aspect, power to operate instruments such as the microscope, pumps, motor(s), camera(s), computer(s) control system is supplied by 110 volt electric which is supplied to the instruments and turned on at the startup.
Filters were used in combination with appropriate beam splitters in the filter cube. For CC (cyan) images: D436/20 excitation (x), D480/40 emission (m) and 455DCLP beam splitter; for CY (FRET) images: D436/20x, D535/30m and 455DCLP beam splitter; for YY (yellow) images: the filters D500/20x, D535/30m and 515LP beam splitter. All filters were from Chroma. Images were acquired using a Hamamatsu CCD Orca-ER Camera with 4×4 binning. Exposure times were 1 sec for each CC or CY image. Images were acquired and captured of the FRET signal every 15 sec for a total of 4 or 6 minutes and stored as 12-bit gray scale image-stacks using MetaVue/Metamorph software (Universal Imaging Corporation, 402 Boot Road, Downington, Pa. 19335). Both camera and filter wheels were controlled peripherally using MetaVue from a Dell Computer Workstation (Dell Computer, Houston, Tex.) Images were processed using Metamorph (Universal Imaging) in a Dell Computer Workstation. […] Average intensities in these regions were measured. Maximum intensity per pixel in selected regions were ensured to be lower than the maximum value on the available 12-bit gray scale (4095). Ratios of the CY over CC intensities from these regions were plotted to obtain the FRET profiles.
Agonist concentration dependence of the decrease in the FRET signal: Images (emission spectra) of live functional biosensor cells were captured and recorded as above for about six minutes. […] The regression lines were drawn using GraphPad (Prizm). The percentage of activation by submaximal doses was determined by the formula 100(Rx−Ro)/(Rm−Ro). Rx, Ro and Rm are the numerical values of the respective regression lines at the 210 second elapsed time point where Ro was the initial baseline, Rx was the submaximal response and Rm was the maximal response.

For assay [4], the system named is human adenosine receptors. Briefly: G protein biosensor FRET profile in biosensor cells expressing adenosine receptor. Conditions: 50 μM. How it is done: as §1, §2, §3

As for `CC(C)(C)NCC(O)COc1cccc2[nH]c(C#N)cc12` (centres unmarked) [cyanopindolol], in assay [1] (cyanopindolol 150 μM after serotonin 20 μM), the “FRET signal intensity on addition of antagonist after agonist” value is listed as “increase in the FRET signal intensity”.

On to `C[N+](C)(C)CCOC(N)=O` [carbachol], for which the “FRET signal intensity on addition of agonist” value in assay [2] is reported as “decrease in FRET signal intensity”. Further, in assay [3], the “FRET signal intensity on addition of the molecule” value is “reduced FRET signal intensity; also recorded: FRET signal intensity decreases”; the “FRET signal intensity on repeated addition of agonist and antagonist” value was “decreases”; the CC emission intensity entry is listed as “CC emission intensity increases”; the CY emission intensity result is reported as “CY emission intensity decreases”.

Take `CC(C)NCC(O)c1ccc(O)c(O)c1` (centres unmarked) [Isoproterenol, isoproterenol]: the “FRET signal intensity on addition of the molecule” value in assay [3] is recorded as “no effect on FRET signal intensity”.

Take `NCCc1c[nH]c2ccc(O)cc12` [serotonin]: the “FRET signal intensity on addition of agonist” value in assay [1] (20 μM) is “decreased the FRET signal intensity significantly; also recorded: decrease in the FRET signal intensity”.

Consider `OC[C@H]1O[C@@H](n2cnc3c(NC4CCCCC4)ncnc32)[C@H](O)[C@@H]1O` [adenosine N6-Cyclohexyl], for which the “FRET signal intensity on addition of agonist” value in assay [4] is “decreased the FRET signal intensity significantly”.

Take `CN1[C@@H]2CC[C@H]1C[C@@H](OC(=O)C(CO)c1ccccc1)C2` (some centres unmarked) [atropine]: in assay [3], the “FRET signal intensity on repeated addition of agonist and antagonist” value was “increases”; the CC emission intensity result is listed as “CC emission intensity decreases”; the CY emission intensity result is on record as “increases”. Besides, the “carbachol-induced loss of FRET after pretreatment with antagonist” value in assay [3] (atropine 10 μM present, carbachol 100 μM added) is listed as “no longer elicited the loss of FRET”. The “FRET signal intensity on addition of antagonist after agonist” value in assay [3] (atropine 100 μM after carbachol 100 μM) is recorded as “FRET signal intensity increases strikingly”.
